Source: patent US8106236B2, “Triaryl compounds and derivates thereof” (Ortho-McNeil Pharmaceutical, Inc., priority 2006, dated 2012)

Tests used:
[1] = target: γ-secretase (Homo sapiens, UniProt P49768); experiment: Screening for γ-secretase-modulating activity, Aβ42 in SKNBE2 cells carrying APP 695 wild type; assay type: cell-based; conditions: read-out: WTAPP SKNBE2 Aβ 42% Inhibition at 3 μM
Procedure: Screening of the Compounds of the Invention for γ-Secretase-Modulating Activity
Cells were grown to near confluency.

[2] = test system: Aβ42; experiment: In vivo Aβ42 lowering, mouse; conditions: oral dose 30 mpk at 4 hr time point, read-out: Mouse Efficacy % Lowering Aβ 42
Source text: (§1) To determine whether acute administration of an Aβ42 lowering agent would reduce Aβ42 levels in vivo, non-transgenic rodents, e.g. mice or rats can be used. Alternatively, two to three month old Tg2576 mice expressing APP695 containing the “Swedish” variant can be used or a transgenic mouse model developed by Dr. Fred Van Leuven (K.U.Leuven, Belgium) and co-workers, with neuron-specific expression of a clinical mutant of the human amyloid precursor protein [V717I] (Moechars et al., 1999 J. Biol. Chem. 274, 6483). […] Animals of this age have high levels of Aβ in the brain but no detectable Aβ deposition. Mice treated with the Aβ42 lowering agent will be examined and compared to those untreated or treated with vehicle and brain levels of soluble Aβ42 and total Aβ would be quantitated by standard techniques, for example, using ELISA. Treatment periods may vary from hours to days and will be adjusted based on the results of the Aβ42 lowering once a time course of onset of effect can be established.
(§2) A typical protocol for measuring Aβ42 lowering in vivo is shown but it is only one of many variations that could be used to optimize the levels of detectable Aβ. For example, aliquots of compounds can be dissolved in DMSO (volume equal to 1/10th of the final formulation volume), vortexed and further diluted (1:10) with a 10% (w/v) hydroxypropyl β cyclodextrin (HBC, Aldrich, Ref N° 33,260-7) solution in PBS, where after they are sonicated for 20 seconds.
(§3) Aβ42 lowering agents may be administered as a single oral dose given three to four hours before sacrifice and analysis or alternatively could be given over a course of days and the animals sacrificed three to four hours after the final dose is given.
(§4) Blood is collected at sacrifice. The blood collection is performed via a heart puncture during anesthesia with a mixture of Ketalar (Ketamin), Rompun (Xylazin 2%) and Atropin (2:1:1) and collected in EDTA treated collection tubes. Blood is centrifuged at 4000 g for 5 minutes at 4° C. and the plasma recovered for analysis.
(§5) The mice are anaesthetized with a mixture of Ketalar (Ketamin), Rompun (Xylazin 2%) and Atropin (2:1:1) and flushed trans-cardially with physiological serum at 4° C.
(§6) The brain is removed from the cranium and hindbrain and forebrain are separated with a cut in the coronal/frontal plane. The cerebellum is removed. The forebrain is divided evenly into left and right hemisphere by using a midline sagital cut.
(§7) One hemisphere is immediately immersed in liquid nitrogen and stored at −70° C. until homogenization for biochemical assays.
(§8) Brains are homogenized using a Potter, a glass tube (detergent free, 2 cm^3) and a mechanical homogenizer (650 rpm). A volume of 6.5×½ brain weight of freshly prepared 20 mM Tris/HCl buffer (pH 8.5) with Proteinase Inhibitors (1 tablet per 50 ml Tris/HCl buffer, Complete™, Roche, Mannheim, Germany) is used as homogenization buffer.
(§9) Samples are transferred from −70° C. into a sample holder with liquid nitrogen and each individual sample is pre-warmed by incubation on the bench for a few seconds prior to homogenization. The homogenates are collected in Beckman centrifuge tubes TLX and collected on ice prior to centrifugation. Between two samples, the Potter and the glass tube are rinsed carefully with distilled water without detergents and dried with absorption paper.
(§10) Samples are centrifuged in a pre-cooled ultracentrifuge (Beckman, Mannheim, Germany) for 1 hour and 20 minutes at 48000 rpm (135.000×g) at 4° C. The supernatant (soluble fraction containing secreted APP and amyloid peptides) is separated from the pellet (membrane fraction containing membrane-bound APP-fragments and plaque-associated amyloid peptides in case of aged mice).
(§11) Small reversed phase columns (C18-Sep-Pack Vac 3 cc cartridges, Waters, Mass., MA) are mounted on a vacuum system and washed with 80% acetonitrile in 0.1% Trifluoroacetic acid (A-TFA) followed with 0.1% TFA twice. […]

[3] = test system: Aβ42; experiment: In vivo Aβ42 lowering, rat; conditions: oral dose 30 mpk at 4 hr time point
Source text: as §1, §2, §3, §4, §5, §6, §7, §8, §9, §10, §11

Compound `CC(C)CC(C(=O)O)c1cc(-c2ccc(C(F)(F)F)cc2)cc(-c2ccc(F)cc2F)c1` (stereo not shown) [Compound 2, 2-(2,4-Difluoro-4″-trifluoromethyl-[1,1′;3′,1″]terphenyl-5′-yl)-4-methyl-pentanoic acid] has an inhibition at 3 µM [1] of 53%.
`CC(C)CC(C(=O)O)c1cc(-c2ccc(C(C)C)cc2)cc(-c2ccc(C(F)(F)F)cc2)c1` (stereo not shown) [Compound 4, 2-(4-Isopropyl-4″-trifluoromethyl-[1,1′;3′,1″]terphenyl-5′-yl)-4-methyl-pentanoic acid] was tested, and the inhibition in vivo at 30 mg/kg [2] was 30%.
For `CC(C)CC(C(=O)O)c1cc(-c2ccc(C(F)(F)F)cc2)cc(-c2ccc(C(F)(F)F)cc2)c1` (stereo not shown) [Compound 5, 2-(4,4″-Bis-trifluoromethyl-[1,1′;3′,1″]terphenyl-5′-yl)-4-methyl-pentanoic acid], the “Rat Efficacy % Lowering Aβ 42” value [3] was 29% and the inhibition in vivo at 30 mg/kg [2] was 48%.
`CC(C)CC(C(=O)O)c1cc(-c2ccc(C(F)(F)F)cc2)cc(-c2ccccc2C(F)(F)F)c1` (stereo not shown) [Compound 6, 2-(2,4″-Bis-trifluoromethyl-[1,1′;3′,1″]terphenyl-5′-yl)-4-methyl-pentanoic acid] was tested, and the inhibition at 3 µM [1] was 65%.
Compound `CC(C)CC(C(=O)O)c1cc(-c2ccc(C(F)(F)F)cc2)cc(-c2ccccc2F)c1` (stereo not shown) [Compound 8, 2-(2-Fluoro-4″-trifluoromethyl-[1,1′;3′,1″]terphenyl-5′-yl)-4-methyl-pentanoic acid] has an inhibition at 3 µM [1] of -1%.
With `Cc1ccc(-c2cc(-c3ccc(C(F)(F)F)cc3)cc(C(CC(C)C)C(=O)O)c2)cc1` (stereo not shown) [Compound 11, 4-Methyl-2-(4-methyl-4″-trifluoromethyl-[1,1′;3′,1″]terphenyl-5′-yl)-pentanoic acid] the inhibition at 3 µM [1] was 68%.
`CC(C)CC(C(=O)O)c1cc(-c2ccc(C(F)(F)F)cc2)cc(-c2cccc(C(F)(F)F)c2)c1` (stereo not shown) [Compound 12, 2-(3,4″-Bis-trifluoromethyl-[1,1′;3′,1″]terphenyl-5′-yl)-4-methyl-pentanoic acid] showed an inhibition at 3 µM [1] of 86%.
With `CC(C)CC(C(=O)O)c1cc(-c2ccc(C(F)(F)F)cc2)cc(-c2cc(F)c(F)c(F)c2)c1` (stereo not shown) [Compound 14, 4-Methyl-2-(3,4,5-trifluoro-4″-trifluoromethyl-[1,1′;3′,1″]terphenyl-5′-yl)-pentanoic acid] the “Rat Efficacy % Lowering Aβ 42” value [3] was 20% and the inhibition in vivo at 30 mg/kg [2] was 58%.
For `CC(C)CC(C(=O)O)c1cc(-c2ccc(C#N)cc2)cc(-c2ccc(C(F)(F)F)cc2)c1` (stereo not shown) [Compound 16, 2-(4-Cyano-4″-trifluoromethyl-[1,1′;3′,1″]terphenyl-5′-yl)-4-methyl-pentanoic acid], the inhibition in vivo at 30 mg/kg [2] was 10%.
Compound `CC(C)CC(C(=O)O)c1cc(-c2ccc(C(F)(F)F)cc2)cc(-c2ccc(S(C)(=O)=O)cc2)c1` (stereo not shown) [Compound 21, 2-(4-Methanesulfonyl-4″-trifluoromethyl-[1,1′;3′,1″]terphenyl-5′-yl)-4-methyl-pentanoic acid] has an inhibition at 3 µM [1] of 46%.
`CC(C)CC(C(=O)O)c1cc(-c2ccc(C(F)(F)F)cc2)cc(-c2cc(Cl)ccc2Cl)c1` (stereo not shown) [Compound 23, 2-(2,5-Dichloro-4″-trifluoromethyl-[1,1′;3′,1″]terphenyl-5′-yl)-4-methyl-pentanoic acid] gave an inhibition at 3 µM [1] of 84%.
Compound `COc1ccc(-c2cc(-c3ccc(C(F)(F)F)cc3)cc(C(CC(C)C)C(=O)O)c2)cc1` (stereo not shown) [Compound 24, 2-(4-Methoxy-4″-trifluoromethyl-[1,1′;3′,1″]terphenyl-5′-yl)-4-methyl-pentanoic acid] has an inhibition at 3 µM [1] of 53%.
`C=C(C)CC(C(=O)O)c1cc(-c2ccc(C(F)(F)F)cc2)cc(-c2ccc(C(F)(F)F)cc2)c1` (stereo not shown) [Compound 25, 2-(4,4″-Bis-trifluoromethyl-[1,1′;3′,1″]terphenyl-5′-yl)-4-methyl-pent-4-enoic acid] showed an inhibition at 3 µM [1] of 82%.
For `CC(C)CC(C(=O)O)c1cc(-c2cc(F)cc(F)c2)cc(-c2cc(F)cc(C(F)(F)F)c2)c1` (stereo not shown) [Compound 32, 4-Methyl-2-(3,5,3″-trifluoro-5″-trifluoromethyl-[1,1′;3′,1″]terphenyl-5′-yl)-pentanoic acid], the inhibition at 3 µM [1] was 80%.
`CC(C)CC(C(=O)O)c1cc(-c2cccc(C#N)c2)cc(-c2cc(C(F)(F)F)cc(C(F)(F)F)c2)c1` (stereo not shown) [Compound 34, 2-(3-Cyano-3″,5″-bis-trifluoromethyl-[1,1′;3′,1″]terphenyl-5′-yl)-4-methyl pentanoic acid] showed an inhibition at 3 µM [1] of 73%.
`CC(C)CC(C(=O)O)c1cc(-c2ccc(C(F)(F)F)cc2)cc(-c2cc(F)cc(C#N)c2)c1` (stereo not shown) [Compound 36, 2-(5-Cyano-3-fluoro-4″-trifluoromethyl-[1,1′;3′,1″]terphenyl-5′-yl)-4-methyl-pentanoic acid] was tested, and the inhibition at 3 µM [1] was 0%.
`CC(C)CC(C(=O)O)c1cc(-c2ccc(C#N)cc2)cc(-c2cc(C(F)(F)F)cc(C(F)(F)F)c2)c1` (stereo not shown) [Compound 37, 2-(4-Cyano-3″,5″-bis-trifluoromethyl-[1,1′;3′,1″]terphenyl-5′-yl)-4-methyl pentanoic acid] was tested, and the inhibition at 3 µM [1] was 84%.
In the case of `CC(C)CC(C(=O)O)c1cc(-c2cc(F)cc(F)c2)cc(-c2cc(F)cc(F)c2)c1` (stereo not shown) [Compound 38, 4-Methyl-2-(3,5,3″,5″-tetrafluoro-[1,1′;3′,1″]terphenyl-5′-yl)-pentanoic acid], the inhibition at 3 µM [1] is reported as 53%.
Compound `CC(C)C[C@H](C(=O)O)c1cc(-c2ccc(C(F)(F)F)cc2)cc(-c2cc(F)cc(F)c2)c1` [Compound 41, (S)-2-(3,5-Difluoro-4″-trifluoromethyl-[1,1′;3′,1″]terphenyl-5′-yl)-4-methyl-pentanoic acid] has an inhibition in vivo at 30 mg/kg [2] of 58%.
`CC(C)C[C@@H](C(=O)O)c1cc(-c2ccc(C(F)(F)F)cc2)cc(-c2cc(F)cc(F)c2)c1` [Compound 42, (R)-2-(3,5-Difluoro-4″-trifluoromethyl-[1,1′;3′,1″]terphenyl-5′-yl)-4-methyl-pentanoic acid] showed an inhibition in vivo at 30 mg/kg [2] of 48%.
`CC(C)C[C@H](C(=O)O)c1cc(-c2ccc(C(F)(F)F)cc2)cc(-c2cc(C(F)(F)F)cc(C(F)(F)F)c2)c1` [Compound 43, (S)-4-Methyl-2-(3,5,4″-tris-trifluoromethyl-[1,1′;3′,1″]terphenyl-5′-yl)-pentanoic acid] showed an inhibition in vivo at 30 mg/kg [2] of 40%.
With `CC(C)C[C@@H](C(=O)O)c1cc(-c2ccc(C(F)(F)F)cc2)cc(-c2ccc(Cl)c(F)c2)c1` [Compound 47, (R)-2-(4-Chloro-3-fluoro-4″-trifluoromethyl-[1,1′;3′,1″]terphenyl-5′-yl)-4-methyl-pentanoic acid] the inhibition in vivo at 30 mg/kg [2] was 45%.
With `CC(=O)c1ccc(-c2cc(-c3ccc(C(F)(F)F)cc3)cc(C(CC(C)C)C(=O)O)c2)cc1` (stereo not shown) [Compound 48, 2-(4-Acetyl-4″-trifluoromethyl-[1,1′;3′,1″]terphenyl-5′-yl)-4-methyl-pentanoic acid] the inhibition at 3 µM [1] was 18%.
Work on `CC(C)CC(C(=O)O)c1cc(-c2ccc(C(F)(F)F)cc2)cc(-c2cccc(N(C)C)c2)c1` (stereo not shown) [Compound 49, 2-(3-Dimethylamino-4″-trifluoromethyl-[1,1′;3′,1″]terphenyl-5′-yl)-4-methyl-pentanoic acid] yielded an inhibition at 3 µM [1] of -17%.
In the case of `CC(C)C[C@@H](C(=O)O)c1cc(-c2ccc(OC(F)(F)F)cc2)cc(-c2ccc(C(F)(F)F)cc2)c1` [Compound 51, (R)-4-Methyl-2-(4-trifluoromethoxy-4″-trifluoromethyl-[1,1′;3′,1″]terphenyl-5′-yl)-pentanoic acid], the inhibition in vivo at 30 mg/kg [2] is reported as 50%.
`CC(C)C[C@H](C(=O)O)c1cc(-c2ccc(OC(F)(F)F)cc2)cc(-c2ccc(C(F)(F)F)cc2)c1` [Compound 52, (S)-4-Methyl-2-(4-trifluoromethoxy-4″-trifluoromethyl-[1,1′;3′,1″]terphenyl-5′-yl)-pentanoic acid] was tested, and the inhibition in vivo at 30 mg/kg [2] was 48%.
